Data: patent US12552825B2 (Zikani Therapeutics, Inc., priority 2019, dated 2026)
In brackets after ≈: the same amount, converted by molar mass.

Tests used:
[1] = from CO[C@](C)(C[C@@H](C)CN(C)[C@H](CO)CNC(=O)OCc1ccccc1)[C@H](O[C@@H]1O[C@H](C)C[C@H](N(C)C)[C@H]1OC(=O)c1ccccc1)[C@@H](C)C1=C(C)C(=O)OC(C)(C)O1; ester bond; chlorobenzene; 4.0 mM; 165.0 °C; 20.0 h
[2] = tested on: S. aureus MP-12; assay: microbe, parasite or virus in culture; type: cell-based; details: Staphylococcus aureus, MP12, read-out: MIC S. aureus MP-12
[3] = tested on: K. pneumoniae MP-648; assay: MIC determination by CLSI broth dilution, K. pneumoniae MP-648; type: cell-based; details: strain MP-648; for MIC: Klebsiella pneumoniae, MP648, CLSI broth dilution
[4] = tested on: K. pneumoniae MP-546; assay: MIC determination by CLSI broth dilution, K. pneumoniae MP-546; type: cell-based; details: Klebsiella pneumoniae, MP546, CLSI broth dilution; strain MP-546
[5] = tested on: E. coli MP-4; assay: MIC determination by CLSI broth dilution, E. coli MP-4; type: cell-based; details: Escherichia coli, MP4, CLSI broth dilution; strain MP-4
[6] = tested on: A. baumannii MP-15; assay: MIC determination by CLSI broth dilution, A. baumannii MP-15; type: cell-based; details: Acinetobacter baumannii, MP15, strain MP-15, read-out: MIC A. baumanii MP-15
[7] = tested on: P. aeruginosa MP-3; assay: MIC determination by CLSI broth dilution, P. aeruginosa MP-3; type: cell-based; details: Pseudomonas aeruginosa, MP3, strain MP-3

Row | Structure (SMILES) | ring closure, yield of all isomers [1] | MIC [2] | MIC [3] | MIC [4] | MIC [5] | MIC [6] | MIC [7] | MIC K. pneumoniae MP-648 ([3]; CLSI broth dilution)
1 | CO[C@]1(C)C[C@@H](C)CN(C)[C@@H](CNC(=O)OCc2ccccc2)COC(=O)C(C)C(=O)[C@H](C)[C@H]1O[C@@H]1O[C@H](C)C[C@H](N(C)C)[C@H]1OC(=O)c1ccccc1 (stereo partly shown) | 82% | – | – | – | – | – | – | –
2 | CCCN1C[C@H](C)C[C@@](C)(OC)[C@H](O[C@@H]2O[C@H](C)C[C@H](N(C)C)[C@H]2O)[C@@H](C)C(=O)C(C)(C)C(=O)OC[C@H]1CCCN1Cc2ccccc2C1 [Compound 145, (3R,6R,8R,9R,10R)-9-(((2S,3R,4S,6R)-4-(dimethylamino)-3-hydroxy-6-methyltetrahydro-2H-pyran-2-yl)oxy)-3-(3-(isoindolin-2-yl)propyl)-8-methoxy-6,8,10,12,12-pentamethyl-4-propyl-1-oxa-4-azacyclotridecane-11,13-dione] | – | < 4 µg/mL | < 4 µg/mL | < 4 µg/mL | < 4 µg/mL | > 32 µg/mL | < 4 µg/mL | –
3 | CCN1C[C@H](C)C[C@@](C)(OC)[C@H](O[C@@H]2O[C@H](C)C[C@H](N(C)C)[C@H]2O)[C@@H](C)C(=O)C(C)(C)C(=O)OC[C@H]1[C@H](O)CCN1CCCC1 [Compound 146] | – | 4 to 32 µg/mL (≈ 6.23 to 49.9 µM) | < 4 µg/mL | < 4 µg/mL | < 4 µg/mL | > 32 µg/mL | > 32 µg/mL | –
4 | CCN1C[C@H](C)C[C@@](C)(OC)[C@H](O[C@@H]2O[C@H](C)C[C@H](N(C)C)[C@H]2O)[C@@H](C)C(=O)C(C)(C)C(=O)OC[C@H]1[C@@H](CCN1CCCC1)OC [Compound 147] | – | 4 to 32 µg/mL (≈ 6.1 to 48.8 µM) | 4 to 32 µg/mL (≈ 6.1 to 48.8 µM) | 4 to 32 µg/mL (≈ 6.1 to 48.8 µM) | < 4 µg/mL | > 32 µg/mL | > 32 µg/mL | –
5 | CO[C@]1(C)C[C@@H](C)CN(C)[C@H](CC2=CCN(CC3CC3)CC2)COC(=O)C(C)(C)C(=O)[C@H](C)[C@H]1O[C@@H]1O[C@H](C)C[C@H](N(C)C)[C@H]1O [Compound 148] | – | 4 to 32 µg/mL (≈ 6.15 to 49.2 µM) | 4 to 32 µg/mL (≈ 6.15 to 49.2 µM) | 4 to 32 µg/mL (≈ 6.15 to 49.2 µM) | < 4 µg/mL | > 32 µg/mL | > 32 µg/mL | –
6 | CCCN1CCC(=C[C@@H]2COC(=O)C(C)(C)C(=O)[C@H](C)[C@@H](O[C@@H]3O[C@H](C)C[C@H](N(C)C)[C@H]3O)[C@](C)(OC)C[C@@H](C)CN2C)CC1 [Compound 149] | – | < 4 µg/mL | < 4 µg/mL | < 4 µg/mL | < 4 µg/mL | > 32 µg/mL | > 32 µg/mL | –
7 | CO[C@]1(C)C[C@@H](C)CN(C)[C@H](C=C2CCN(CC3CC3)CC2)COC(=O)C(C)(C)C(=O)[C@H](C)[C@H]1O[C@@H]1O[C@H](C)C[C@H](N(C)C)[C@H]1O [Compound 150] | – | 4 to 32 µg/mL (≈ 6.15 to 49.2 µM) | 4 to 32 µg/mL (≈ 6.15 to 49.2 µM) | < 4 µg/mL | < 4 µg/mL | > 32 µg/mL | > 32 µg/mL | –
8 | CO[C@]1(C)C[C@@H](C)CN(C)[C@@H](CCCN2CCC2)COC(=O)C(C)(C)C(=O)[C@H](C)[C@H]1O[C@@H]1O[C@H](C)C[C@H](N(C)C)[C@H]1O [Compound 160, (3S,6R,8R,9R,10R)-3-(3-(azetidin-1-yl)propyl)-9-(((2S,3R,4S,6R)-4-(dimethylamino)-3-hydroxy-6-methyltetrahydro-2H-pyran-2-yl)oxy)-8-methoxy-4,6,8,10,12,12-hexamethyl-1-oxa-4-azacyclotridecane-11,13-dione] | – | 4 to 32 µg/mL (≈ 6.69 to 53.5 µM) | 4 to 32 µg/mL (≈ 6.69 to 53.5 µM) | < 4 µg/mL | < 4 µg/mL | > 32 µg/mL | > 32 µg/mL | –
9 | CO[C@]1(C)C[C@@H](C)CN(C)[C@H](CCCN2CCCC2)COC(=O)C(C)(C)C(=O)[C@H](C)[C@H]1O[C@@H]1O[C@H](C)C[C@H](N(C)C)[C@H]1O [Compound 161, (3R,6R,8R,9R,10R)-9-(((2S,3R,4S,6R)-4-(dimethylamino)-3-hydroxy-6-methyltetrahydro-2H-pyran-2-yl)oxy)-8-methoxy-4,6,8,10,12,12-hexamethyl-3-(3-(pyrrolidin-1-yl)propyl)-1-oxa-4-azacyclotridecane-11,13-dione] | – | < 4 µg/mL | < 4 µg/mL | < 4 µg/mL | < 4 µg/mL | > 32 µg/mL | 4 to 32 µg/mL (≈ 6.54 to 52.3 µM) | –
10 | CCN(C)CC[C@@H](O)[C@@H]1COC(=O)C(C)(C)C(=O)[C@H](C)[C@@H](O[C@@H]2O[C@H](C)C[C@H](N(C)C)[C@H]2O)[C@](C)(OC)C[C@@H](C)CN1CC [Compound 168] | – | 4 to 32 µg/mL (≈ 6.35 to 50.8 µM) | < 4 µg/mL | 4 to 32 µg/mL (≈ 6.35 to 50.8 µM) | < 4 µg/mL | > 32 µg/mL | > 32 µg/mL | –
11 | CCCCCCCN1CCC(C[C@@H]2COC(=O)[C@@](C)(Cc3ccccc3)C(=O)[C@H](C)[C@@H](O[C@@H]3O[C@H](C)C[C@H](N(C)C)[C@H]3O)[C@](C)(OC)C[C@@H](C)CN2C)CC1 [Compound 171] | – | 4 to 32 µg/mL (≈ 5.18 to 41.4 µM) | 4 to 32 µg/mL (≈ 5.18 to 41.4 µM) | 4 to 32 µg/mL (≈ 5.18 to 41.4 µM) | < 4 µg/mL | > 32 µg/mL | > 32 µg/mL | –
12 | C=C(C)C[C@]1(C)C(=O)OC[C@@H](CC2CCN(CCCCCCC)CC2)N(C)C[C@H](C)C[C@@](C)(OC)[C@H](O[C@@H]2O[C@H](C)C[C@H](N(C)C)[C@H]2O)[C@@H](C)C1=O [Compound 172] | – | 4 to 32 µg/mL (≈ 5.43 to 43.5 µM) | – | 4 to 32 µg/mL (≈ 5.43 to 43.5 µM) | 4 to 32 µg/mL (≈ 5.43 to 43.5 µM) | > 32 µg/mL | > 32 µg/mL | ++ (values of greater than 4 mg/L and less than or equal to 32 mg/L)
13 | CCCCCCCN1CCC(C[C@@H]2COC(=O)[C@@](C)(Cl)C(=O)[C@H](C)[C@@H](O[C@@H]3O[C@H](C)C[C@H](N(C)C)[C@H]3O)[C@](C)(OC)C[C@@H](C)CN2C)CC1 [Compound 173] | – | > 32 µg/mL | 4 to 32 µg/mL (≈ 5.58 to 44.7 µM) | < 4 µg/mL | < 4 µg/mL | > 32 µg/mL | > 32 µg/mL | –
14 | CCCCCCCN1CCC(C[C@@H]2COC(=O)[C@@](C)(CCC)C(=O)[C@H](C)[C@@H](O[C@@H]3O[C@H](C)C[C@H](N(C)C)[C@H]3O)[C@](C)(OC)C[C@@H](C)CN2C)CC1 [Compound 174] | – | 4 to 32 µg/mL (≈ 5.52 to 44.2 µM) | 4 to 32 µg/mL (≈ 5.52 to 44.2 µM) | 4 to 32 µg/mL (≈ 5.52 to 44.2 µM) | < 4 µg/mL | > 32 µg/mL | > 32 µg/mL | –
15 | CCCCCCCN1CCC(C[C@@H]2COC(=O)[C@@](C)(COC)C(=O)[C@H](C)[C@@H](O[C@@H]3O[C@H](C)C[C@H](N(C)C)[C@H]3O)[C@](C)(OC)C[C@@H](C)CN2C)CC1 [Compound 176] | – | > 32 µg/mL | 4 to 32 µg/mL (≈ 5.51 to 44.1 µM) | < 4 µg/mL | < 4 µg/mL | > 32 µg/mL | > 32 µg/mL | –
16 | CCCN1C[C@H](C)C[C@@](C)(OC)[C@H](O[C@@H]2O[C@H](C)C[C@H](N(C)C)[C@H]2O)[C@@H](C)C(=O)C(C)(C)C(=O)OC[C@H]1CCCN1CCc2ncncc2C1 [Compound 182, (3R,6R,8R,9R,10R)-3-(3-(7,8-dihydropyrido[4,3-d]pyrimidin-6 (5H)-yl)propyl)-9-(((2S,3R,4S,6R)-4-(dimethylamino)-3-hydroxy-6-methyltetrahydro-2H-pyran-2-yl)oxy)-8-methoxy-6,8,10,12,12-pentamethyl-4-propyl-1-oxa-4-azacyclotridecane-11,13-dione] | – | 4 to 32 µg/mL (≈ 5.68 to 45.5 µM) | 4 to 32 µg/mL (≈ 5.68 to 45.5 µM) | 4 to 32 µg/mL (≈ 5.68 to 45.5 µM) | < 4 µg/mL | > 32 µg/mL | > 32 µg/mL | –
